Data on one compound can be found in PMC5318439, “The Novel Toll-Like Receptor 2 Agonist SUP3 Enhances Antigen Presentation and T Cell Activation by Dendritic Cells” (Frontiers in Immunology, 2017).

The nature of data set [1]: Plasma stability. The class given is in vitro ADME. The conditions noted are these: compared with Pam3, Figure S3B. An excerpt: Pam3 is a lipopeptide and serves as a TLR2 agonist through binding to TLR2/TLR1 heterodimer. Although Pam3 is widely used as a TLR2 agonist, some intrinsic problems remain in detailed mechanism studies and drug development. The two ester groups of Pam3 can be easily hydrolyzed in plasma, and the hydroxyl group in serine could be readily oxidized in physiological conditions (Figure S1A in Supplementary Material). […] In addition, we displaced serine residue in Pam3 with glycine residue to eliminate this chiral center (Figures S1A,B in Supplementary Material). Since the third lysine residue in Pam3 is crucial for H bonding, we kept three lysine residues in the new molecule and removed the forth lysine residue to further reduce the molecular weight of the new TLR2 agonist, (2S,5S,8S,14R,18R)-2,5,8-tris(4-aminobutyl)-4,7,10,13,21-pentaoxo-14-palmitamido-18-((tetradecylcarbamoyl)oxy)-20-oxa-16-thia-3,6,9,12,22-pentaazahexatriacontan-1-oic acid. It is termed SUP3 (Figure 1A; Figures S1A,B in Supplementary Material). Chemical characterization of SUP3 by ^1H nuclear magnetic resonance and electrospray ionization mass spectrum analysis further confirm the structure (Figures S2A,B in Supplementary Material).

Data set [2] relates to NF-κB and MAPK pathways. The data set can be described thus: Immunoblot of NF-κB and MAPK signaling in CD8+ cDCs. The class given is cell-based, mice. The conditions noted are these: 200 nM, 0–120 min, western blot. The procedure:
Immunoblot assay was performed as described elsewhere ([40], [41]). Briefly, whole-cell lysates were prepared by direct lysis in SDS loading buffer. Lysates were separated by 10% SDSPAGE and transferred to a polyvinylidene fluoride membrane (Millipore IPVH00010) for probing with antibody. Antibodies against phosphorylated NF-κB p65 (p-p65) (Ser 536) (Clone 93H1), p-SAPK/JNK (Thr183/Tyr185) (Clone 81E11), SAPK/JNK (Clone 56G8), p-p38 (Thr180/Tyr182) (Clone 3D7), and p38 (Clone D13E1) were purchased from Cell Signaling Technology. Antibodies against IκBα ([…]), p-ERK (Clone E-4), and ERK (Clone K-23) were purchased from Santa Cruz Biotech. The chemiluminescence signals were captured by Amersham Image 600 system (GE Healthcare).
Figure 4 SUP3 stimulated maturation of CD8^+ conventional dendritic cells (cDCs). (A) Purified CD8^+ cDCs were treated with SUP3 (200 nM) or Pam3 (200 nM) in the presence of granulocyte-macrophage colony-stimulating factor (GM-CSF) (20 ng/mL) for 24 h. The surface expression of costimulatory and major histocompatibility complex (MHC) molecules were then analyzed by flow cytometry. Representative data from three independent experiments were shown. […] Splenic CD8^+ cDCs were enriched, and surface expression of CD40 and CD86 was analyzed by flow cytometry. […] Supernatants were harvested 24 and 48 h post-stimulation, and cytokines were measured by ELISA. […]
On the technique in general: Immunoblotting shows a protein as a band on a membrane.

Molecules are shown by their SMILES. Where a SMILES comes first, the peptide text is derived from it. The star is where a group is joined. X1 = CCCCCCCCCCCCCCNC(=O)OC[C@H](C*)OC(=O)NCCCCCCCCCCCCCC; Palmitoyl = CCCCCCCCCCCCCCCC(=O)*

In the case of `CCCCCCCCCCCCCCCC(=O)N[C@@H](CSC[C@@H](COC(=O)NCCCCCCCCCCCCCC)OC(=O)NCCCCCCCCCCCCCC)C(=O)NCC(=O)N[C@@H](CCCCN)C(=O)N[C@@H](CCCCN)C(=O)N[C@@H](CCCCN)C(=O)O` [SUP3, (2S,5S,8S,14R,18R)-2,5,8-tris(4-aminobutyl)-4,7,10,13,21-pentaoxo-14-palmitamido-18-((tetradecylcarbamoyl)oxy)-20-oxa-16-thia-3,6,9,12,22-pentaazahexatriacontan-1-oic acid] (Palmitoyl-C(X1)GKKK-OH), the plasma stability result in data set [1] is “much higher than Pam3”. The “NF-κB and MAPK signaling (p-p65, IκBα, p-ERK, p-JNK, p-p38) in CD8+ cDCs” value in data set [2] is “induced phosphorylation of p65 and degradation of IκBα and enhanced phosphorylation of ERK, JNK, and p38”.
